# Where a name gives a salt, the structure may show the parent alone.
# How the values were obtained:
# Solubility test Method 1 = type: physicochemical; details: Method 1: 30% propylene glycol in water, shaked 72 hours at room temperature
# Procedure: Sample solutions (around 16.7 mg/ml) in propylene glycol were diluted with water (30% propylene glycol). Then, samples were shaked for 72 hours at room temperature. After shaking period, samples were centrifuged, then the liquid phase was filtered and analyzed using HPLC coupled to UV detection. To determine the actual concentration a 5-point calibration curve was established.
# Mcl-1 protein = Mcl-1 protein (Homo sapiens, UniProt Q07820); test: Inhibition of Mcl-1 by the fluorescence polarisation technique; type: binding; details: fluorescence polarisation test; read-out: IC50 (M) Mcl-LFP
# Mcl-1 protein, sequence (Q07820 whole entry): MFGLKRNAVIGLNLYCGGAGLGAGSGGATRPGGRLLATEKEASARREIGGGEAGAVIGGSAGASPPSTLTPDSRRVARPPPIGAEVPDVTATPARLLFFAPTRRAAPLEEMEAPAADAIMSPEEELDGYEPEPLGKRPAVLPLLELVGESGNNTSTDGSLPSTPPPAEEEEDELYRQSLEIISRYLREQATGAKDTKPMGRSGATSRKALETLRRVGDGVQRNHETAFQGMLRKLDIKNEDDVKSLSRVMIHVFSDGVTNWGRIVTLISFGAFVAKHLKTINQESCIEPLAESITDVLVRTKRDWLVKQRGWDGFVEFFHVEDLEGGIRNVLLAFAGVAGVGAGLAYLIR
# Procedure: The relative, binding potency of each compound was determined via Fluorescence Polarisation (FP). The method utilised a Fluorescein labelled ligand (Fluorescein-βAla-Ahx-A-REIGAQLRRMADDLNAQY-OH; mw 2,765) which binds to the Mcl-1 protein (such that Mcl-1 corresponds to the UniProtKB® primary accession number: Q07820) leading to an increased anisotropy measured in milli-polarisation (mP) units using a reader. The addition of a compound which binds competitively to the same site as the ligand will result in a greater proportion of unbound ligand in the system indicated by a decrease in mP units.
# An 11 point serial dilution of each compound was prepared in DMSO and 2 μl transferred into flat bottomed, low binding, 384-well plate (final DMSO concentration 5%), 38 μl of buffer (10 mM 4-(2-hydroxyethyl)-1-piperazineethanesolfonic acid [HEPES], 150 mM NaCl, 0.05% Tween 20, pH 7.4), containing the Fluorescein labelled ligand (final concentration 1 nM) and Mcl-1 protein (final concentration 5 nM) was then added.
# Assay plates were incubated ˜2 hours at room temperature before FP was measured on a […] Synergy2 reader (Ex. 528 nm, Em. 640 nm, Cut off 510 nm) and mP units calculated. The binding of increasing doses of test compound was expressed as a percentage reduction in mP compared to a window established between ‘5% DMSO only’ and ‘100% inhibition’ controls. 11-point dose response curves were plotted with XL-Fit software using a 4-Parameter Logistic Model (Sigmoidal Dose-Response Model) and the inhibitory concentrations that gave a 50% reduction in mP (IC50) were determined.
# [1] = tested on: H929 multiple myeloma tumour line; test: In vitro cytotoxicity (MTT); type: cell-based; details: 48 hours exposure
# Procedure: The cytotoxicity studies were carried out on the H929 multiple myeloma tumour line.
# The cells are distributed onto microplates and exposed to the test compound for 48 hours.
# The cell viability is then quantified by a colorimetric assay, the Microculture Tetrazolium Assay (Carmichael et al. Cancer Res. 1987, 47, 936-942).
# Solubility test Method 2 = type: physicochemical; details: Method 2: aqueous phosphate buffer 67.7 mM, pH 7.4, room temperature
# Procedure: Samples (40 mg/mL) were diluted in aqueous phosphate buffer (67.7 mM, with pH adjusted at 7.4) used for in vivo studies. Samples were shaked at room temperature, then filtered. The solubilized fraction was quantified by LC-MS-MS analysis.
structure (smiles),measurement,setting,value
"COc1ccccc1-c1nccc(COc2ccccc2C[C@@H](Oc2ncnc3sc(-c4ccc(F)cc4)c(-c4ccc(OCCN5CCN(C)CC5)c(Cl)c4C)c23)C(=O)O)n1 [(2R)-2-{[(5Sa)-5-{3-chloro-2-methyl-4-[2-(4-methylpiperazin-1-yl)ethoxy]phenyl}-6-(4-fluorophenyl)thieno[2,3-d]pyrimidin-4-yl]oxy}-3-(2-{[2-(2-methoxyphenyl)pyrimidin-4-yl]methoxy}phenyl)propanoic acid, reference compound]",solubility,Solubility test Method 1,63.3 µM
"COc1ccccc1-c1nccc(COc2ccccc2C[C@@H](Oc2ncnc3sc(-c4ccc(F)cc4)c(-c4ccc(OCCN5CC[N+](C)(COP(=O)([O-])O)CC5)c(Cl)c4C)c23)C(=O)O)n1 [Example 1, {4-[2-(4-{(5Sa)-4-[(1R)-1-carboxy-2-(2-{[2-(2-methoxyphenyl)pyrimidin-4-yl]methoxy}phenyl)ethoxy]-6-(4-fluorophenyl)thieno[2,3-d]pyrimidin-5-yl}-2-chloro-3-methylphenoxy)ethyl]-1-methylpiperazin-1-ium-1-yl}methyl hydrogen phosphate]",IC50,Mcl-1 protein,1.03e-09 M
same,solubility,Solubility test Method 1,≥ 4907 µM
same,IC50,[1]; H929 cells,28.4 nM
"COc1ccccc1-c1nccc(COc2ccccc2CC(Oc2ncnc3sc(-c4ccc(F)cc4)c(-c4ccc(OCC[N+](C)(C)COP(=O)([O-])O)c(Cl)c4C)c23)C(=O)O)n1 [Example 11, {4-[2-(4-{(5Sa)-4-[(1R)-1-carboxy-2-(2-{[2-(2-methoxyphenyl)pyrimidin-4-yl]methoxy}phenyl)ethoxy]-6-(4-fluorophenyl)thieno[2,3-d]pyrimidin-5-yl}-2-chloro-3-methylphenoxy)ethyl](dimethyl)ammonio}methyl hydrogen phosphate]",IC50,Mcl-1 protein,1.06e-09 M
same,IC50,"[1]; Homo sapiens, NCI-H929, H929 cells",39.3 nM
same,solubility,Solubility test Method 2,> 35 mg/mL
"COc1ccccc1-c1nccc(COc2ccccc2C[C@@H](Oc2ncnc3sc(-c4ccc(F)cc4)c(-c4ccc(OCCN5CC[N+](C)(COC(=O)C(C)(C)C)CC5)c(Cl)c4Br)c23)C(=O)O)n1 [Example 32, 4-[2-(3-bromo-4-{(5Sa)-4-[(1R)-1-carboxy-2-(2-{[2-(2-methoxyphenyl)pyrimidin-4-yl]methoxy}phenyl)ethoxy]-6-(4-fluorophenyl)thieno[2,3-d]pyrimidin-5-yl}-2-chlorophenoxy)ethyl]-1-{[(2,2-dimethylpropanoyl)oxy]methyl}-1-1-methyl piperazin-1-ium trifluoroacetate]",IC50,Mcl-1 protein,1.77e-09 M
same,IC50,[1]; H929 cells,2.11 nM
